The record followed here is ChEMBL document CHEMBL5385906, “Discovery of a Potent, Selective, and Orally Bioavailable Tool Compound for Probing the Role of Lysophosphatidic Acid Type 2 Receptor Antagonists in Fibrotic Disorders” (J Med Chem, 2023).

As a reminder, the IC50 is the concentration that inhibits the measured activity by half. A higher IC50 goes with weaker potency in that assay.

For one experiment, the target named is Lysophosphatidic acid receptor 1 (Homo sapiens, UniProt Q92633).
Lysophosphatidic acid receptor 1, sequence (Q92633 whole entry): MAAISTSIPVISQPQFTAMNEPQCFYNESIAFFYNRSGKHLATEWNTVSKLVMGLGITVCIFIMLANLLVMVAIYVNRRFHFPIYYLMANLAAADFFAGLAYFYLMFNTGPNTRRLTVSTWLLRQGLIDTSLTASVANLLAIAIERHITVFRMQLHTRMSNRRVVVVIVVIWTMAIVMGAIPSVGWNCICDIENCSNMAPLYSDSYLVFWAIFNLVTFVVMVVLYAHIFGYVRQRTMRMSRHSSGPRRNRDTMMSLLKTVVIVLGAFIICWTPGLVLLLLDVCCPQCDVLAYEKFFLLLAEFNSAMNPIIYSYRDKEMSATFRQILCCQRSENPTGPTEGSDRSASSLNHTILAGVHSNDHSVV
Description: Antagonist activity at human LPA1 receptor expressed in CHO cells assessed as inhibition of LPA-induced calcium mobilization pretreated for 15 mins followed by LPA stimulation by FLIPR analysis
For `CC(CN1CCN(S(=O)(=O)c2ccc(Cl)c(Cl)c2)CC1)Nc1ncnc2c1ncn2C` (racemic), the IC50 was 20.4 µM.
Take `Cc1cccc2c(NC(C)CN3CCN(S(=O)(=O)c4ccc(Cl)c(Cl)c4)CC3)ncnc12` (stereo in doubt; 42a): the IC50 is more than 50.1 µM.
On to `CC(CN1CCN(S(=O)(=O)c2ccc(Cl)c(Cl)c2)CC1)Nc1ccncn1` (racemic), for which the half-maximal inhibitory concentration (IC50) was 21.9 µM.
The compound `Cc1csc2c(N[C@@H](C)C(=O)N3CCN(S(=O)(=O)c4ccc(Cl)c(Cl)c4)CC3)ncnc12` had an IC50 of more than 50.1 µM.

In the next experiment the target is Lysophosphatidic acid receptor 2 (Homo sapiens, UniProt Q9HBW0).
Lysophosphatidic acid receptor 2, sequence (Q9HBW0 whole entry): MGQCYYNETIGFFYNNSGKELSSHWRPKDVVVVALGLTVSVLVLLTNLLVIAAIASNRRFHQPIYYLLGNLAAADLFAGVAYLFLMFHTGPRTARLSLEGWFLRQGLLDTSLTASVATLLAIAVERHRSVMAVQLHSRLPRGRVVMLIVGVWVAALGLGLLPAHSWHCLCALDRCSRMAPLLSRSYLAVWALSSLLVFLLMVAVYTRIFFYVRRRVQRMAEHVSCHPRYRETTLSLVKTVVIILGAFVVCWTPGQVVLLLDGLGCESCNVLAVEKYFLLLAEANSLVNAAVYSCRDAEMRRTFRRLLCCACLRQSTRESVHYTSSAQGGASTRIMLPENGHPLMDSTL
Description: Antagonist activity at human LPA2 receptor expressed in CHO cells assessed as inhibition of LPA-induced calcium mobilization pretreated for 15 mins followed by LPA stimulation by FLIPR analysis
`C[C@@H](CN1CCN(S(=O)(=O)c2ccc(Cl)c(Cl)c2)CC1)Nc1ncnc2cc(C(F)(F)F)ccc12` gave an IC50 of 18.2 µM.
With `Cc1csc2c(NC(C)CN3CCN(S(=O)(=O)c4ccc(Cl)c(Cl)c4)CC3)cccc12` (racemic), the IC50 is more than 50.1 µM.
`Cc1csc2c(N[C@@H](C)CNC3CCN(S(=O)(=O)c4ccc(Cl)c(Cl)c4)CC3)ncnc12`: 17 µM corresponded to half-maximal inhibition (IC50).
Same read-out and setting: with `CC(CN1CCN(S(=O)(=O)c2ccc(Cl)c(Cl)c2)CC1)Nc1ncnc2c1ncn2C` (racemic) the figure was 19.1 µM; with `CC(=O)Nc1ccc(S(=O)(=O)N2CCN(C[C@H](C)Nc3ncnc4c(C)csc34)CC2)cc1Cl`, 4.07 µM; with `Cc1csc2c(N3CCC[C@H]3CN3CCN(S(=O)(=O)c4ccc(Cl)c(Cl)c4)CC3)ncnc12`, 30.2 µM.
In turn, `C[C@@H](CN1CCN(S(=O)(=O)c2ccc(Cl)c(Cl)c2)CC1)Nc1ncnc2ccn(C)c12` showed an IC50 of 8.13 µM.
Turning to `CC(=O)Nc1ncc(S(=O)(=O)N2CCN(C[C@H](C)Nc3ncnc4c(C)csc34)CC2)s1`, the IC50 was 4.57 µM.
`Cc1cccc2c(NC(C)CN3CCN(S(=O)(=O)c4ccc(Cl)c(Cl)c4)CC3)ncnc12` (stereo in doubt; 42a): the IC50 is more than 50.1 µM.
Consider `Cc1csc2c(N[C@@H](C)CN3CCC(NS(=O)(=O)c4ccc(Cl)c(Cl)c4)CC3)ncnc12`, for which the midpoint of inhibition, the IC50, lay at 6.61 µM.
With `Cc1csc2c(NCC(C)N3CCN(S(=O)(=O)c4ccc(Cl)c(Cl)c4)CC3)ncnc12` (stereo in doubt; 6a), it took 14.5 µM to reach half-maximal inhibition (IC50).
Consider `Cc1csc2c(N[C@@H](C)CN3CCN(S(=O)(=O)c4ccc(Cl)cc4Cl)CC3)ncnc12`, for which the IC50 was 3.63 µM.
As for `COC(=O)Nc1nc(C)c(S(=O)(=O)N2CCN(C[C@H](C)Nc3ncnc4c(C(F)(F)F)cccc34)CC2)s1`, 0.0447 µM corresponded to half-maximal inhibition (IC50).
Compound `Cc1csc2c(N[C@@H](C)CN3CCN(S(=O)(=O)C4CCCCC4)CC3)ncnc12` had an IC50 of 25.1 µM.
For `C[C@@H](CN1CCN(S(=O)(=O)c2ccc(Cl)c(Cl)c2)CC1)Nc1ncnc2cnn(C)c12`, the IC50 was 17.4 µM.
`Cc1noc(-c2ccc(S(=O)(=O)N3CCN(C[C@H](C)Nc4ncnc5c(C(F)(F)F)cccc45)CC3)s2)c1C` had an IC50 of 0.00575 µM.
In the case of `Cc1csc2c(N[C@@H](C)CNC3CCC(NS(=O)(=O)c4ccc(Cl)c(Cl)c4)CC3)ncnc12` (stereo partly specified), the IC50 was 35.5 µM.
In the case of `Cc1ccc(S(=O)(=O)N2CCN(C[C@H](C)Nc3ncnc4c(C)csc34)CC2)cc1C`, the IC50 is 2.82 µM.
Still for that read-out and setting: with `Cc1csc2c(N[C@@H](C)CN3CCN(S(=O)(=O)c4ccc(Cl)c(Cl)c4)CC34CC4)ncnc12` the figure was 9.33 µM; with `Cc1csc2c(NC3(CN4CCN(S(=O)(=O)c5ccc(Cl)c(Cl)c5)CC4)CC3)ncnc12`, 8.32 µM; with `Cc1csc2c(N[C@@H](C)CN3CCN(S(=O)(=O)C(=O)c4ccc(Cl)c(Cl)c4)CC3)ncnc12`, 16.2 µM.
`C[C@@H](CN1CCN(S(=O)(=O)c2ccc(Cl)c(Cl)c2)CC1)Nc1ncnc2cc[nH]c12` showed an IC50 of 15.8 µM.
Compound `Cc1csc2c(NCC(C)N3CCN(S(=O)(=O)c4ccc(Cl)c(Cl)c4)CC3)ncnc12` (stereo in doubt; 6b) showed an IC50 of 6.17 µM.
`Cc1noc(-c2ccc(S(=O)(=O)N3CCN(C[C@H](C)Nc4ncnc5c(C)csc45)CC3)s2)c1C` gave an IC50 of 0.0437 µM.
In the case of `Cc1csc2c(N[C@@H](C)CN3CCN(S(=O)(=O)c4ccc(F)c(Cl)c4)CC3)ncnc12`, the IC50 was 0.562 µM.
The compound `Cc1csc2c(N[C@@H](C)CN3CCN(S(=O)(=O)c4ccccc4)CC3)ncnc12` showed a half-maximal inhibitory concentration (IC50) of 11.2 µM.
For `CC[C@@H](CN1CCN(S(=O)(=O)c2ccc(Cl)c(Cl)c2)CC1)Nc1ncnc2c(C)csc12`, the IC50 is 6.17 µM.
